# Several values for one entry are separate records, joined by “and”; a condition that tells them apart may be missing. Equal entries are not always repeated. Where a SMILES comes first, the peptide text is derived from it. [ ]: non-standard residue; d: D form. NMeL = CN[C@@H](CC(C)C)C(=O)O
# Tests used:
# [1] = tested on: human breast adenocarcinoma cells (MDA-MB-435); assay type: cell-based; settings: 48 h
# Procedure: (§1) Human hepatocellular cells (HepG2), human breast cancer cells (MCF-7), human breast adenocarcinoma cells (MDA-MB-435) and a human cervical carcinoma cell line (Hela) were selected as our in vitro cancerous cell models. The cells were all cultured in DMEM medium containing 10% fetal bovine serum, 1% penicillin-streptomycin and antifungal agent, incubated at 37 °C with 5% CO2 and 90% humidity. The cytotoxicity of Galaxamide and its analogs on the four cancerous cells was evaluated using the MTT method. […] After that, 20 µL MTT reagents were added to each well and incubated between 3–5 h according to the nature of cells; the color intensity of the cell culture at 570 nm was measured using a microplate spectrophotometer. Finally, the cell viability was calculated accordingly. Note: […]
# [2] = tested on: human breast cancer cells (MCF-7); assay type: cell-based; settings: 48 h
# Procedure: as §1
# [3] = tested on: human hepatocellular cells (HepG2); assay type: cell-based; settings: 48 h
# Procedure: as §1
# [4] = tested on: human cervical carcinoma cell line (Hela); assay type: cell-based; settings: 48 h
# Procedure: as §1
# [5] = tested on: HepG2 cells; experiment: Cell cycle analysis by propidium iodide staining, flow cytometry; assay type: cell-based, human; settings: 48 h, PI staining
# Procedure: In particular, HepG2 cells were exposed to Galaxamide, Analog-4 and Analog-6 with concentrations of 0, 5, 10 and 15 µg/mL for 48 h. Generally, treatment with Galaxamide, Analog-4 and -6 all caused changes in the cell cycle of HepG2 cells, mainly in the sub-G1 stage, where a subdiploid peak was detected, indicating their apoptotic effects on HepG2 cells.
# (§2) HepG2 cells were seeded in 6-well tissue culture plates at a concentration of 1 × 10^5 cells/well. Galaxamide and its analogs with a concentration of 0, 5, 10 and 15 µg/mL were added to the cell cultures and incubated for 48 h. After that, 5 µL Annexin V-fluorescein isothiocyanate (FITC) and 5 µL of PI were added for dual staining of the cells and analyzed by FACScan flow cytometry. Cell cycle and apoptotic cells were determined by counting the FITC-positive and PI-negative fractions.
# [6] = tested on: HepG2 cells; experiment: Hoechst 33342 staining, nuclear morphology; assay type: cell-based, human; settings: HepG2, increasing concentration up to 15 µg/mL, 48 h, fluorescence microscope
# Procedure: We then investigated the effect of Galaxamide and Analog-6 on the cell morphology and nuclear integrity. HepG2 cells were treated with an increasing concentration of Analog-6 for 48 h and then stained by Hoechst 33342 (a DNA fluorescent dye). The effect of Galaxamide on HepG2 cells was used as a control. Noting that Hoechst 33342 is a DNA fluorescent dye, the fluorescently-stained DNA presents a blue color under the fluorescence microscope.
# HepG2 cells were seeded in 6-well tissue culture plates at a concentration of 1 × 10^5 cells/well. Galaxamide and its analogs with a concentration of 0, 5, 10 and 15 µg/mL were added to the cell cultures and incubated for 48 h. After that, cells were fixed with 3.7% of paraformaldehyde for 10 min and washed three times with PBS. Then, Hoechst 33342 was added for cell staining, then visualized using a fluorescent microscope.
# [7] = tested on: cleaved caspase-3; experiment: Western blot, cleaved caspase-3 expression; assay type: cell-based, human; settings: HepG2, 15 µg/mL, 48 h
# Procedure: (§3) There are two major pathways involved in cells apoptosis: the mitochondria-mediated intrinsic pathway and the death receptor-mediated extrinsic pathway. To elucidate the possible mechanism of the apoptotic effects of Analog-6, Western blot experiments were performed. HepG2 cells were treated with 0, 5, 10 and 15 µg/mL Analog-6 for 48 h, and then expression of cleaved caspase-3, caspase-9 and poly(ADP-ribose) polymerase (PARP) was quantified, results are shown in Figure 6.
# (§4) Target proteins were first extracted using Radio-Immunoprecipitation Assay (RIPA) buffer and quantified by the Bradford method. Then, proteins were transferred to a polyvinylidene difluoride (PVDF) membrane, and the membrane was blocked with 5% non-fat milk for 1 h and incubated with a primary antibody (Cell Signaling Technology, Danvers, MA, USA, rabbit monoclonal antibody, 1:1000) at 4 °C overnight. After that, the membrane was washed two times with TBST buffer (Tris-buffered saline with 0.1% Tween-20) and incubated with a secondary antibody (goat-anti-rabbit horseradish peroxidase (HRP)-conjugated 1:15,000) for 1 h under room temperature. Finally, the membrane was washed three times with TBST, and the intensity of the specific immunoreactive bands was detected by enhanced chemiluminescence.
# [8] = tested on: poly(ADP-ribose) polymerase (PARP); experiment: Western blot, cleaved PARP expression; assay type: cell-based, human; settings: HepG2, 15 µg/mL, 48 h
# Procedure: as §3, §4
# [9] = tested on: HepG2 cells; experiment: Annexin V-FITC / PI dual staining, flow cytometry (apoptosis); assay type: cell-based, human; settings: 48 h
# Procedure: To further study the apoptotic mechanism of Analog-6, the Annexin V-fluorescein isothiocyanate (FITC) and propidium iodide (PI) dual staining method was used. Briefly, HepG2 cells were treated with 0, 5, 10 and 15 µg/mL Analog-6 for 48 h. Then, cells were washed several times with PBS and stained by dual staining of two fluorescent dyes, Annexin V-FITC and PI, and analyzed by flow cytometry. Results are shown in Figure 5, where HepG2 cells exposed to Galaxamide were used as the control. Note that Q1, Q2, Q3 and Q4 in the figure represent four quadrants of necrotic cells, late apoptotic cells, normal cells and early apoptotic cells, respectively.
# as §2
# [10] = tested on: caspase-9; experiment: Western blot, caspase-9 expression; assay type: cell-based, human; settings: HepG2, 15 µg/mL, 48 h
# Procedure: as §3, §4
# [11] = tested on: human renal cell carcinoma GRC-1; settings: in vitro, GRC-1 cell line; cited from earlier work
# Excerpt: (§5) In our initial work, a novel cyclic-pentapeptide named Galaxamide was isolated from a marine algae Galaxaura filamentosa collected from Xisha Island in the South China Sea. Galaxamide is a cyclic-pentapeptide composed of five L-leucines, including two N-methylated ones. N-methylated amino acid is an important component endowing the anticancer potential to the cyclopeptides.
# [12] = tested on: human hepatocellular carcinoma HepG2; settings: in vitro, HepG2 cell line; cited from earlier work
# Excerpt: as §5
# [13] = tested on: human normal liver cell line L02; settings: cited from earlier work
# Excerpt: In our previous work, we synthesized several Galaxamide analogs and tested their cytotoxicity on a normal cell line (human normal liver cell line L02) and a broad range of cancerous cell lines in vitro.
smiles,measurement,setting,value
"CC(C)C[C@@H]1NC(=O)[C@H](CC(C)C)N(C)C(=O)[C@H](CC(C)C)NC(=O)[C@H](CC(C)C)N(C)C(=O)[C@H](Cc2ccccc2)NC1=O [Analog-1, Cyclo(Me-Leu-Leu-Phe-Me-Leu-Leu)]","IC50 (µg/mL) in Different Cell Lines, MDA-MB-435",[1],9.76 ± 0.18 µg/mL
same,"IC50 (µg/mL) in Different Cell Lines, MCF-7",[2],13.03 ± 0.33 µg/mL
same,"IC50 (µg/mL) in Different Cell Lines, HepG2",[3],5.85 ± 0.13 µg/mL
same,"IC50 (µg/mL) in Different Cell Lines, Hela",[4],6.85 ± 0.26 µg/mL
"CC(C)C[C@@H]1NC(=O)[C@H](CC(C)C)N(C)C(=O)[C@H](CC(C)C)NC(=O)[C@H](CC(C)C)N(C)C(=O)[C@@H](Cc2ccccc2)NC1=O [Analog-2, Cyclo(Me-Leu-Leu-D-Phe-Me-Leu-Leu)]","IC50 (µg/mL) in Different Cell Lines, MDA-MB-435",[1],9.5 ± 0.32 µg/mL
same,"IC50 (µg/mL) in Different Cell Lines, MCF-7",[2],9.64 ± 0.27 µg/mL
same,"IC50 (µg/mL) in Different Cell Lines, HepG2",[3],4.56 ± 0.22 µg/mL
same,"IC50 (µg/mL) in Different Cell Lines, Hela",[4],4.95 ± 0.18 µg/mL
"CC(C)C[C@@H]1NC(=O)[C@H](CC(C)C)N(C)C(=O)[C@H](Cc2ccccc2)NC(=O)[C@@H](CC(C)C)NC(=O)[C@H](CC(C)C)N(C)C1=O [Analog-6, Cyclo(Me-Leu-D-Leu-Phe-Me-Leu-Leu)]","IC50 (µg/mL) in Different Cell Lines, MDA-MB-435",[1],6.76 ± 0.22 µg/mL
same,"IC50 (µg/mL) in Different Cell Lines, MCF-7",[2],8.15 ± 0.18 µg/mL
same,"IC50 (µg/mL) in Different Cell Lines, HepG2",[3],4.1 ± 0.20 µg/mL
same,"IC50 (µg/mL) in Different Cell Lines, Hela",[4],3.42 ± 0.25 µg/mL
same,G0/G1 cells,"[5]; HepG2, 5 µg/mL",61.5%
same,G2/M cells,"[5]; HepG2, 5 µg/mL",21.6%
same,S cells,"[5]; HepG2, 5 µg/mL",16.9%
same,Sub-G1 cells,"[5]; HepG2, 5 µg/mL",3.30%
same,G0/G1 cells,"[5]; HepG2, 10 µg/mL",56.8%
same,G2/M cells,"[5]; HepG2, 10 µg/mL",14.4%
same,S cells,"[5]; HepG2, 10 µg/mL",28.8%
same,Sub-G1 cells,"[5]; HepG2, 10 µg/mL",5.36%
same,G0/G1 cells,"[5]; HepG2, 15 µg/mL",88.6%
same,G2/M cells,"[5]; HepG2, 15 µg/mL",4.22%
same,S cells,"[5]; HepG2, 15 µg/mL",7.18%
same,Sub-G1 cells,"[5]; HepG2, 15 µg/mL",67.9% and 68%
same,nuclei morphology after Hoechst 33342 staining,[6],severely damaged
same,increased fold of cleaved caspase-3 expression,[7],3.4 fold
same,increased fold of PARP expression,[8],6.8 fold
same,"Q4, early apoptotic cells","[9]; HepG2, 5 µg/mL",7.3%
same,"Q4, early apoptotic cells","[9]; HepG2, 10 µg/mL",16.9%
same,"Q4, early apoptotic cells","[9]; HepG2, 15 µg/mL",49.4% and ~50%
same,increased fold of caspase-9 expression,[10],3.3 fold
"CC(C)C[C@@H]1NC(=O)[C@H](CC(C)C)N(C)C(=O)[C@H](CC(C)C)NC(=O)[C@@H](CC(C)C)N(C)C(=O)[C@H](Cc2ccccc2)NC1=O [Analog-3, Cyclo(Me-Leu-Leu-Phe-Me-D-Leu-Leu)]","IC50 (µg/mL) in Different Cell Lines, MDA-MB-435",[1],12.6 ± 0.29 µg/mL
same,"IC50 (µg/mL) in Different Cell Lines, MCF-7",[2],18.16 ± 0.33 µg/mL
same,"IC50 (µg/mL) in Different Cell Lines, HepG2",[3],7.71 ± 0.11 µg/mL
same,"IC50 (µg/mL) in Different Cell Lines, Hela",[4],4.39 ± 0.26 µg/mL
"CC(C)C[C@@H]1NC(=O)[C@H](CC(C)C)N(C)C(=O)[C@@H](CC(C)C)NC(=O)[C@H](CC(C)C)N(C)C(=O)[C@H](Cc2ccccc2)NC1=O [Analog-4, Cyclo(Me-Leu-Leu-Phe-Me-Leu-D-Leu)]","IC50 (µg/mL) in Different Cell Lines, MDA-MB-435",[1],7.67 ± 0.18 µg/mL
same,"IC50 (µg/mL) in Different Cell Lines, MCF-7",[2],8.62 ± 0.26 µg/mL
same,"IC50 (µg/mL) in Different Cell Lines, HepG2",[3],7.2 ± 0.15 µg/mL
same,"IC50 (µg/mL) in Different Cell Lines, Hela",[4],4.2 ± 0.32 µg/mL
same,G0/G1 cells,"[5]; HepG2, 5 µg/mL",70.5%
same,G2/M cells,"[5]; HepG2, 5 µg/mL",9.33%
same,S cells,"[5]; HepG2, 5 µg/mL",20.2%
same,Sub-G1 cells,"[5]; HepG2, 5 µg/mL",1.78%
same,G0/G1 cells,"[5]; HepG2, 10 µg/mL",64.2%
same,G2/M cells,"[5]; HepG2, 10 µg/mL",12.9%
same,S cells,"[5]; HepG2, 10 µg/mL",22.9%
same,Sub-G1 cells,"[5]; HepG2, 10 µg/mL",7.1%
same,G0/G1 cells,"[5]; HepG2, 15 µg/mL",67.6%
same,G2/M cells,"[5]; HepG2, 15 µg/mL",5.91%
same,S cells,"[5]; HepG2, 15 µg/mL",26.5%
same,Sub-G1 cells,"[5]; HepG2, 15 µg/mL",35.5%
"CC(C)C[C@@H]1NC(=O)[C@@H](CC(C)C)N(C)C(=O)[C@H](CC(C)C)NC(=O)[C@H](CC(C)C)N(C)C(=O)[C@H](Cc2ccccc2)NC1=O [Analog-5, Cyclo(Me-D-Leu-Leu-Phe-Me-Leu-Leu]","IC50 (µg/mL) in Different Cell Lines, MDA-MB-435",[1],20.43 ± 0.23 µg/mL
same,"IC50 (µg/mL) in Different Cell Lines, MCF-7",[2],15.21 ± 0.29 µg/mL
same,"IC50 (µg/mL) in Different Cell Lines, HepG2",[3],10.72 ± 0.32 µg/mL
same,"IC50 (µg/mL) in Different Cell Lines, Hela",[4],7.4 ± 0.33 µg/mL
CC(C)C[C@@H]1NC(=O)[C@H](CC(C)C)N(C)C(=O)[C@H](CC(C)C)NC(=O)[C@H](CC(C)C)N(C)C(=O)[C@H](CC(C)C)NC1=O [Galaxamide] (cyclo(LL[NMeL]L[NMeL])),G0/G1 cells,"[5]; HepG2, 5 µg/mL",71.2%
same,G2/M cells,"[5]; HepG2, 5 µg/mL",9.18%
same,S cells,"[5]; HepG2, 5 µg/mL",19.6%
same,Sub-G1 cells,"[5]; HepG2, 5 µg/mL",1.30%
same,G0/G1 cells,"[5]; HepG2, 10 µg/mL",73.7%
same,G2/M cells,"[5]; HepG2, 10 µg/mL",9.03%
same,S cells,"[5]; HepG2, 10 µg/mL",17.2%
same,Sub-G1 cells,"[5]; HepG2, 10 µg/mL",8.81%
same,G0/G1 cells,"[5]; HepG2, 15 µg/mL",70.8%
same,G2/M cells,"[5]; HepG2, 15 µg/mL",9.46%
same,S cells,"[5]; HepG2, 15 µg/mL",19.8%
same,Sub-G1 cells,"[5]; HepG2, 15 µg/mL",13.1%
same,"IC50, antiproliferative activity, GRC-1",[11],4.26 µg/mL
same,"IC50, antiproliferative activity, HepG2",[12],4.63 µg/mL
same,nuclei morphology after Hoechst 33342 staining,[6],slight shrinking of nuclei
same,"IC50, cytotoxicity on normal L02",[13],> 40 µg/mL
same,"Q4, early apoptotic cells","[9]; HepG2, 5 µg/mL",1.8%
same,"Q4, early apoptotic cells","[9]; HepG2, 10 µg/mL",10.6%
same,"Q4, early apoptotic cells","[9]; HepG2, 15 µg/mL",12.1%
